US20220296659A1, “PHARMACEUTICAL COMPOSITION FOR TREATMENT OF TUMOR OR CANCER, AND APPLICATION THEREOF” (FANTASIA BIOPHARMA (ZHEJIANG) CO. LTD, priority 2019, published 2022)

Columns and labels:
[1] = test system: lung cancer cells; assay type: in vivo, mice; conditions: after completion of the experiment

Q: For O=C(O)c1cc(O)c2c(c1)C(=O)c1cccc(O)c1C2=O [rhein], which “overall inhibition ratio (lung metastasis)” value [1] is on record?
A: 15.8%

Q: And the “toxic damage to the tumor-bearing mice” value (different doses, under the experimental conditions)?
A: did not cause toxic damage

Q: What about the “influence on the body temperature of tumor-bearing mice” value (mouse, in vivo) of the same compound?
A: some fluctuations
